Experimental data taken from patent publication US9018206B2, “Carboxamide compounds and their use as calpain inhibitors” (AbbVie Deutschland GmbH & Co. KG, priority 2009, dated 2015).

Tests used:
[1] = target: T1, recombinant human cathepsin S (Homo sapiens, UniProt P25774); assay: Cathepsin S enzyme inhibition in vitro (kinetic fluorescence assay); assay type: biochemical; details: Ki(cathepsin S)/Ki(calpain) ratio
T1 construct: purchased Calbiochem 219343; host or cells: E. coli
Outline: (§1)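 Kinetic AMC fluorescence (ex 390/em 460 nm), room temperature. Calpain-I 20 nM, 100 μM Suc-Leu-Tyr-AMC, imidazole/CaCl2 pH 7.3; cathepsins B 0.25 nM/100 μM Z-Phe-Arg-AMC, K 3 nM/10 μM Z-Gly-Pro-Arg-AMC, S 0.5 nM/20 μM Z-Val-Val-Arg-AMC, each MES/EDTA/cysteine pH 6.0. Ki from IC50 via Cheng-Prusoff, averaging 2–4 curves.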

[2] = target: T2, cathepsin K activated from recombinant human procathepsin K (Homo sapiens, UniProt P43235); assay: Cathepsin K enzyme inhibition in vitro (kinetic fluorescence assay); assay type: biochemical; details: Ki(cathepsin K)/Ki(calpain) ratio
T2 construct: purchased Calbiochem 342001; host or cells: E. coli
T2 sequence (P43235 115-329): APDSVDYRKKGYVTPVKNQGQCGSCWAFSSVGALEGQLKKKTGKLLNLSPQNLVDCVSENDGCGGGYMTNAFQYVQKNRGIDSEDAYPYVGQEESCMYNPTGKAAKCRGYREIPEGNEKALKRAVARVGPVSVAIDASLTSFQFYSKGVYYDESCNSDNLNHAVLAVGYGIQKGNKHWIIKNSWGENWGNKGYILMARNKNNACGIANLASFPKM
Outline: as §1

[3] = Assay for determining cytosolic clearance, human liver cytosol; assay type: in vitro ADME; details: 0.5 μM compound, 1 mg/ml human liver cytosol, 37° C., pH 7.5
Description: (§2) For comparison purposes data measured with human liver cytosol were contrasted with those obtained with cynomolgus monkey liver cytosol.
(§3) 0.5 μM of a compound to be tested was incubated with 1 mg/ml of human liver cytosol as well as monkey liver cytosol at 37° C. in 0.5 M of phosphate buffer at pH 7.5 while shaking (commercial sources: female cynomolgus liver cytosol from Tebu bio, human liver cytosol from BDgentest).
(§4) In each case aliquots of 65 μl were taken after 0, 5, 10 and 15 min and transferred into wells of a wellplate which were immediately filled with 130 μl of ethanol to stop the reaction. The samples were kept frozen until analysis on a LC/MS/MS system (Applied Biosystems SCIEX 4000).
(§5) Read out parameters were the loss of parent compounds, from which the half life periods (T1/2) were calculated from.
(§6) To assess the stability of the compounds tested the clearance ranges were adjusted to the hepatic plasma flow of the different species according to the following scheme:
(§7) stable=from 0 to about ⅓ of the hepatic plasma flow;
(§8) moderately stable=from about ⅓ to about ⅔ of the hepatic plasma flow;
(§9) instable=more than ⅔ of the hepatic plasma flow.
(§10) Based on this adjustment the following qualifiers were assigned to evaluate the cytosolic stabilities of the compounds tested: […]

[4] = target: T3, cathepsin B isolated from human liver (Homo sapiens, UniProt P07858); assay: Cathepsin B enzyme inhibition in vitro (kinetic fluorescence assay); assay type: biochemical; details: Ki(cathepsin B)/Ki(calpain) ratio
T3 construct: cathepsin B—isolated from human liver; purchased Calbiochem 219362; host or cells: human liver (tissue-derived)
Outline: as §1

[5] = Assay for determining cytosolic clearance, cynomolgus monkey liver cytosol; assay type: in vitro ADME; details: 0.5 μM compound, 1 mg/ml cynomolgus monkey liver cytosol, 37° C., pH 7.5
Description: as §2, §3, §4, §5, §6, §7, §8, §9, §10

[6] = target: T4, calpain-I isolated from human erythrocytes (Homo sapiens, UniProt P07384); assay: Calpain I enzyme inhibition in vitro (kinetic fluorescence assay); assay type: biochemical; details: apparent Ki from IC50 (Cheng-Prussoff); 20 nM calpain-I, 100 μM Suc-Leu-Tyr-AMC, pH 7.3, room temperature
T4 construct: calpain-I—isolated from human erythrocytes; purchased Calbiochem 208713; host or cells: human erythrocytes (tissue-derived)
T4 sequence (P07384 1-714): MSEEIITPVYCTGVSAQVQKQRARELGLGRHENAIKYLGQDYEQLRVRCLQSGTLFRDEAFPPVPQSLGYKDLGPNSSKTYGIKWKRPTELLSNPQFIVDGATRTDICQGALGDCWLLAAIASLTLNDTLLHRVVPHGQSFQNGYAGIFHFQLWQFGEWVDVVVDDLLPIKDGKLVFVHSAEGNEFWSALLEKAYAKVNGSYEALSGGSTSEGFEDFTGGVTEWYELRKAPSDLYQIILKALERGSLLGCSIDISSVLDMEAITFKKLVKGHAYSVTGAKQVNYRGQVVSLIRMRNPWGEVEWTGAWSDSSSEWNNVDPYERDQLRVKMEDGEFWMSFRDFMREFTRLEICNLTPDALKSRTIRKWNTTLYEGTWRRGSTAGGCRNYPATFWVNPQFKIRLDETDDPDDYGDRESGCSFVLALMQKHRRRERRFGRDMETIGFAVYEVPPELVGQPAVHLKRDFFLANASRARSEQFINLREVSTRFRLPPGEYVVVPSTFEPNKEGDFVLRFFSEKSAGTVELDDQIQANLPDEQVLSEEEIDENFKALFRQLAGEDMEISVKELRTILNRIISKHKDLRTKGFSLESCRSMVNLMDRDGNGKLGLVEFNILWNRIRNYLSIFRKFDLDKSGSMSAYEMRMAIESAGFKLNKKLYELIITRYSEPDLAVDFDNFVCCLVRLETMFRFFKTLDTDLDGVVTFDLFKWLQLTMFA
T4 sequence (P04632 1-268 partner): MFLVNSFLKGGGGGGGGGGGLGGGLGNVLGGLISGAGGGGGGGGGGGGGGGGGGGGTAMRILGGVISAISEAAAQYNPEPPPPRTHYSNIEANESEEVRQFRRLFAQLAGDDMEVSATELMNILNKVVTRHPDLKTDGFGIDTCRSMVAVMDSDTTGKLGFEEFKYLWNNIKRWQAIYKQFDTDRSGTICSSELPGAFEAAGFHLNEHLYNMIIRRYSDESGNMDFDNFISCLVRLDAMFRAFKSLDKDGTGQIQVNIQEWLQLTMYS
Outline: as §1

[7] = target: T5, cathepsin L isolated from human liver (Homo sapiens, UniProt P07711); assay: Cathepsin L enzyme inhibition in vitro (kinetic fluorescence assay); assay type: biochemical; details: Ki(cathepsin L)/Ki(calpain) ratio
T5 construct: cathepsin L—isolated from human liver; purchased Calbiochem 219402; host or cells: human liver (tissue-derived)
Outline: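 Inhibition of cathepsin L isolated from human liver was measured by kinetic fluorescence (excitation 390 nm, emission 460 nm) using 1 nM enzyme and 2 μM Z-Phe-Arg-AMC substrate (Km 2 μM) in 50 mM MES, 2 mM EDTA, 0.05% Brij 35, 2.5 mM L-cysteine, pH 6.0, at room temperature. Apparent Ki values came from IC50 values via the Cheng-Prussoff relation, averaged over 2 to 4 dose-effect plots.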

T1 sequence (P25774 115-331): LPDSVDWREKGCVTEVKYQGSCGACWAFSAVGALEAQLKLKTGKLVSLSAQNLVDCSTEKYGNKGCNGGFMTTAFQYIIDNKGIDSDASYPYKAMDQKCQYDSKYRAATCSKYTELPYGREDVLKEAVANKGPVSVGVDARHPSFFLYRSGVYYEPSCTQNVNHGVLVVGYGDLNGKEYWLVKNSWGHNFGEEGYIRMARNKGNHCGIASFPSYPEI
T5 sequence (P07711 114-333): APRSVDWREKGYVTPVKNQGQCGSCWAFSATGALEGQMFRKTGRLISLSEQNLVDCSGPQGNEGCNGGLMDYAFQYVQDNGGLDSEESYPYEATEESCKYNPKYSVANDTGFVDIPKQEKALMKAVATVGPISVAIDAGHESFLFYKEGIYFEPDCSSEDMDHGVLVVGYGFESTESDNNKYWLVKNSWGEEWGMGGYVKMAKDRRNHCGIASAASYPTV

human cytCL [3] | Sel cat. B [4] | cyno cytCL [5] | Ki [6] [nM] | Compound | Sel cat. S [1] | Sel cat. K [2] | Sel cat. L [7]
++ (0-14 μl/min/mg) | ++ (10<Ki(cathepsin B)/Ki(calpain)≦30) | ++ (0-18 μl/min/mg) | 50 to 100 | O=C(NC1CC1)C(=O)C(Cc1ccccc1)NC(=O)[C@H]1CCC(=O)N1Cc1ccccc1C(F)(F)F (mixture of isomers) [Example 36, (2R)—N-(4-(Cyclopropylamino)-3,4-dioxo-1-phenylbutan-2-yl)-5-oxo-1-(2-(trifluoromethyl)benzyl)pyrrolidine-2-carboxamide] | +++ (Ki(cathepsin S)/Ki(calpain) ratio of >100) | +++ (Ki(cathepsin K)/Ki(calpain) ratio of >30) | +++ (Ki(cathepsin L)/Ki(calpain) ratio of >30)
++ (0-14 μl/min/mg) | ++ (10<Ki(cathepsin B)/Ki(calpain)≦30) | ++ (0-18 μl/min/mg) | 100 to 600 | CCNC(=O)C(=O)C(Cc1ccccc1)NC(=O)[C@H]1CCC(=O)N1Cc1ccccc1C(F)(F)F (mixture of isomers) [Example 37, (2R)—N-(4-(Ethylamino)-3,4-dioxo-1-phenylbutan-2-yl)-5-oxo-1-(2-(trifluoromethyl)-benzyl)pyrrolidine-2-carboxamide] | + (10<Ki(cathepsin S)/Ki(calpain)≦30) | ++ (10<Ki(cathepsin B)/Ki(calpain)≦30) | +++ (Ki(cathepsin L)/Ki(calpain) ratio of >30)
